Experimental data reported in patent US9815788B2, “Anti-angiogenic compounds” (University College Dublin National University of Ireland, …, priority 2012, dated 2017).

Key:
[1] = tested on: OE33R radio-resistant oesophageal adenocarcinoma cells; assay: Quantification of glycolysis (ECAR, Seahorse), OE33R; assay type: cell-based, human; conditions: 10 μM, 24 hours
Description: OE33P radio-sensitive and OE33R radio-resistant oesophageal adenocarcinoma cells were used to test the effects of compounds 11B HCl, 11B CC11 HCl, 11B CC16 HCl, 11B 471 and 11B 268 on glycolysis. Cells were maintained in RPMI media supplemented with 10% foetal calf serum, penicillin (100 U/ml) and streptomycin (100 μg/ml). A total of 11,000 or 13,000 cells, in 100 μl media, were seeded per well in 24 well plates and left to incubate for 24 hours, with an additional 150 μl media added after 5 hours. The media was replaced with solutions containing 10 μM of 11B HCl, […], 11B CC16 HCl, 11B 471, 11B 268 or fresh media as a control. Each drug had 6 replicates. After 24 hours of treatment, media was replaced with modified DMEM supplemented with 0.5 mM glucose. Rates of glycolysis were determined using Seahorse Biosciences metabolism technology. The media was disposed and the cells washed with PBS. The cells were fixed with 1% glutaraldehyde for 15 minutes and then stained with crystal violet for 30 minutes. The plates were blotted and dried overnight. The cells were resuspended with 1% TritonX-100 and shaken for 15 minutes. The absorbance was read on a spectrophotometer at 590 nm. Rates of glycolysis were then normalised to cell number.
OE33P radiosensitive oesophageal adenocarcinoma cells were used to test the effects of the compound 11B_ZHCl on glycolysis. Cells were maintained in RPMI media supplemented with 10% foetal calf serum, penicillin (100 U/ml) and streptomycin (100 μg/ml). A total of 11,000 cells, in 100 μl media, were seeded per well in 24 well plates and left to incubate for 24 hours, with an additional 150 μl media added after 5 hours. The media was replaced with solutions containing 10 μM of 11B_ZHCl or fresh media as a control. Each treatment had 6 replicates. After 24 hours of treatment, media was replaced with modified DMEM supplemented with 0.5 mM glucose. Rates of glycolysis were determined using Seahorse Biosciences metabolism technology. […] The absorbance was read on a spectrophotometer at 590 nm. […] No changes in ECAR were detected in OE33R treated cells.

[2] = tested on: OE33P radio-sensitive oesophageal adenocarcinoma cells; assay: Cell number after 24 hours drug treatment (crystal violet absorbance), OE33P; assay type: cell-based, human; conditions: 10 μM
Description: (§1) OE33P radio-sensitive and OE33R radio-resistant oesophageal adenocarcinoma cells were used to test the effects of the compounds 11B HCl, […], 11B CC16 HCl, 11B 471 and 11B 268 on cell number. Cells were maintained in RPMI media supplemented with 10% foetal calf serum, penicillin (100 U/ml) and streptomycin (100 gig/ml). A total of 11.000 or 13,000 cells, in 100 μl media, were seeded per well in 24 well plates and left to incubate for 24 hours, with an additional 150 μl media added after 5 hours. The media was replaced with solutions containing 10 μM of 11B HCl, 11B CC11 HCl, 11B CC16 HCl, 11B 471, 11B 268 or fresh media as a control. Each drug had 6 replicates. After 24 hours of treatment, the cells were fixed with 1% glutaraldehyde for 15 minutes and then stained with crystal violet for 30 minutes. The plates were blotted and dried overnight. The cells were resuspended with 1% TritonX-100 and shaken for 15 minutes. The absorbance was read on a spectrophotometer at 590 nm.
(§2) OE33P radiosensitive and OE33R radioresistant cells were used to test the effects of the compound 11B_Z_HCl on toxicity. Cells were maintained in RPMI media supplemented with 10% foetal calf serum, penicillin (100 U/ml) and streptomycin (100 μg/ml). A total of 11,000 cells, in 100 μl media, were seeded per well in 24 well plates and left to incubate for 24 hours, with an additional 150 μl media added after 5 hours. The media was replaced with solutions containing 10 μM of 11B_Z_HCl or fresh media as a control. Each treatment had 6 replicates. After 24 hours of treatment, the cells were fixed with 1% glutaraldehyde for 15 minutes and then stained with crystal violet for 30 minutes. The plates were blotted and dried overnight. The cells were resuspended with 1% TritonX-100 and shaken for 15 minutes. The absorbance was read on a spectrophotometer at 590 nm.

[3] = tested on: zebrafish hyaloid vasculature; assay: Quantification of primary hyaloid vasculature branch number in Tg(fli1:EGFP) zebrafish; assay type: in vivo
Description: (§3) All experiments were carried out under ethical approval granted by the UCD animal research ethics committee. Tg(fli1:EGFP) zebrafish were maintained according to standard procedures on a 14 hr light/10 hr dark cycle at 28° C. Embryos were obtained by natural spawning and developmental stages established by time and morphological criteria. […] Larvae were euthanised, and fixed in 4% PFA at 4° C. overnight before analysis.
Overall patterning of the vasculature (fin, gut and intersegmental vessels) was examined for abnormalities. Right lenses were dissected from the larvae and transferred to depression slides for observation under epi-fluorescence in the Olympus SZX16. Patterning of the hyaloid vessels on the treated larval lenses was compared to DMSO controls and the archetypal pattern previously described (Alvarez et al., 2007; Alvarez et al., 2009).
as §3, with “analysis. Lenses were dissected from the larvae and transferred to depression slides for observation under epi-fluorescence in the Olympus SZX16. Patterning of the hyaloid vessels on the treated larval lenses was compared to DMSO controls and the archetypal pattern previously described (Alvarez et al., 2007; Alvarez et al., 2009).” for “analysis.”

[4] = tested on: OE33R radio-resistant oesophageal adenocarcinoma cells; assay: Cell number after 24 hours drug treatment (crystal violet absorbance), OE33R; assay type: cell-based, human; conditions: 10 μM
Description: as §1, §2

[5] = tested on: zebrafish intersegmental vessels; assay: Quantification of intersegmental vessel number in zebrafish; assay type: in vivo; conditions: 10 μM, from 6 hpf
Description: […] Larvae were manually dechorionated, euthanised, and fixed in 4% PFA at 4° C. overnight before analysis. The larvae were then washed with PBS and transferred to depression slides for observation under epi-fluorescence in an Olympus SZX16 fluorescent microscope. The number of intersegmental vessels was counted and the average number was graphed for each drug.
Larvae were manually dechorionated, euthanised, and fixed in 4% PFA at 4° C. overnight before analysis. The larvae were then washed with PBS and transferred to depression slides for observation under epi-fluorescence in an Olympus SZX16 fluorescent microscope. The number of intersegmental vessels was counted and the average number was graphed for each drug.

[6] = biological target: T1, cysteinyl-leukotriene CysLT1 (Cavia porcellus, UniProt Q2NNR5); assay: Ex vivo cysteinyl leukotriene guinea pig lung strip assay; conditions: 30 μM, 3 nM leukotriene D4
T1 construct: a lung strip obtained from Duncan Hartley derived male or female guinea pigs; from tissue; host or cells: guinea pig lung strip
T1 sequence (Q2NNR5 1-340): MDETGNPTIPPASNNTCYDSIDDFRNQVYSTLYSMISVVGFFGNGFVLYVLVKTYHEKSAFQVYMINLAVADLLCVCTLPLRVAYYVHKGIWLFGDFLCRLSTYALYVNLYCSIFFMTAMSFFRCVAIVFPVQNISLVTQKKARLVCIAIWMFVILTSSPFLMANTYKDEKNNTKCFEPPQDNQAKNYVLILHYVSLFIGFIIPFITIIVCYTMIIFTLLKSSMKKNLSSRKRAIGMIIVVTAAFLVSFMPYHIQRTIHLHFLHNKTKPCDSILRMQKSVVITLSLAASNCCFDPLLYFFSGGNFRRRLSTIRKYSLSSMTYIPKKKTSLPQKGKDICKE
Description: (§4) FIG. 15 tables the percentage inhibition by compounds 11B_CC11_HCl and 11B_CC16_HCl on the cysteinyl leukotriene pathway in in vitro and ex vivo assays. […] For in vitro cysteinyl leukotriene cell-based assays 11B_CC11_HCl and 11B_CC16_HCl, were tested at 30 μM concentration in duplicate, in a single experiment for their ability to inhibit the calcium mobilisation response of the CysLT1 receptor to 0.1 nM leukotriene D4 in CHO cells over-expressing the CysLT1 receptor or the calcium mobilisation response of the CysLT2 receptor to 30 nM of leukotriene C4 in HEK 293 cells over expressing the CysLT2 receptor.
(§5) Target profiling using Cerep and Eurofins/Panlabs profiling screens was undertaken using 11B_CC11_HCl and 11B_CC16_HCl in order to investigate the mechanism of action. […] Test substance (30 LM)-induced isometrically recorded contraction by 50 percent or more within 5 min, relative to control 3 nM leukotriene D4 response, indicates possible cysteinyl-leukotriene LT1 receptor agonist activity. […] To measure inhibition of cysteinyl leukotriene 1 (CysLT1 [LTD4]) and cysteinyl leukotriene 2 (CysLT2 [LTC4]) receptor activity, calcium mobilisation was measured using Fluor-3-loaded CHO cells (for cysLT1 assays) or HEK-293 cells (for CysLT2 assays) which stably express either the CysLT1 or CysLT2 receptors. […]

CysLT2 receptor = biological target: T2, CysLT2 receptor (Homo sapiens, UniProt Q9NS75); assay: CysLT2 calcium mobilisation assay in HEK 293 cells; assay type: cell-based; conditions: HEK293, 30 nM LTC4, HEK-293 cells expressing CysLT2, read-out: inhibition of calcium mobilisation (CysLT2 antagonism)
T2 construct: host or cells: HEK 293 cells
T2 sequence (Q9NS75 1-346): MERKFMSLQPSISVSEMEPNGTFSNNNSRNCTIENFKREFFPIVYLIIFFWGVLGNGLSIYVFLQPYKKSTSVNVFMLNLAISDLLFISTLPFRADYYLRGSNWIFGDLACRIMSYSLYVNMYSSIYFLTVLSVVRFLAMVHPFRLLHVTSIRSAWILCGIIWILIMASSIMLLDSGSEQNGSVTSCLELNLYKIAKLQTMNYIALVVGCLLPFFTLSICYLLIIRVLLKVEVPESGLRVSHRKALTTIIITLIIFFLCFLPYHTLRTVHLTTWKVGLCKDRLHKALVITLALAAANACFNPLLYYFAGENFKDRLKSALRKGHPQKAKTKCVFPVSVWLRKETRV
Description: as §4, §5

CysLT1 receptor = biological target: T3, CysLT1 receptor (Homo sapiens, UniProt Q9Y271); assay: CysLT1 calcium mobilisation assay in CHO cells; assay type: cell-based; conditions: 0.1 nM LTD4, CHO cells expressing CysLT1, read-out: inhibition of calcium mobilisation (CysLT1 antagonism)
T3 construct: host or cells: CHO cells
T3 sequence (Q9Y271 1-337): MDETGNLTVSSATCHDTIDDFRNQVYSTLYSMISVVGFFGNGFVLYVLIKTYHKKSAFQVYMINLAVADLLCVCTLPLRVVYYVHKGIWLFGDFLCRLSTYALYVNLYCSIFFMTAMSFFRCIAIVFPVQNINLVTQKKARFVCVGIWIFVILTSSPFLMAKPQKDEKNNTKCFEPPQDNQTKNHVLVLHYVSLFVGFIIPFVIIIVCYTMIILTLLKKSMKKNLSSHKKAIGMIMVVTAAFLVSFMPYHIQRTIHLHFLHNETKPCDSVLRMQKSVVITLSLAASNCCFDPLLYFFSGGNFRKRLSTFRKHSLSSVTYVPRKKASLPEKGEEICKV
Description: as §4, §5

Structure (SMILES) | extracellular acidification rate (ECAR), a measure of glycolysis [1] | cell number, measured by % absorbance [2] | dose-dependent inhibition of development of hyaloid vessels ([3]; decreasing doses 20, 10, 7.5, 5, 2.5, 1 and/or 0.5 μM) | inhibition of developmental angiogenesis of the hyaloid vasculature (number of primary hyaloid vessels) ([3]; typically 10 μM or 5 μM, from 24 hpf, vs DMSO control) | cell number, measured by % absorbance [4] | inhibition of developmental angiogenesis of intersegmental vessels (number of intersegmental vessels) [5] | reduction of the leukotriene D4-induced contractile response [6] [%] | inhibition at 30 µM (CysLT2 receptor) [%] | inhibition at 30 µM (CysLT1 receptor) [%]
C(=Cc1ccc2ccccc2n1)c1cccnc1 [Compound 11B-471, 2-[2-(3-pyridinyl)vinyl]quinoline] | significantly reduce | did not significantly reduce cell number | inhibit developmental angiogenesis of zebrafish hyaloid vasculature in a dose-dependent statistically significant manner | inhibit developmental angiogenesis of the zebrafish hyaloid vasculature in a statistically significant manner | did not significantly reduce cell number | inhibit developmental angiogenesis of zebrafish intersegmental vessels in a statistically significant manner |  |  | 
Cl.Oc1ccccc1C#Cc1ccc2ccccc2n1 [Compound 11B_CC16_HCl, 2-Quinolin-2-yl-ylethynyl-phenol HCl salt] |  |  |  |  |  |  | 100 | 48 | 137
